Results taken from patent publication US4061607A, “Somatostatin analogs and intermediates thereto” (Eli Lilly and Company, priority 1976, dated 1977).
Positions of bridges follow the written chain, without caps; N, C: chain ends. Non-standard residues stand in square brackets, D forms with d. Residues, ends and D or L forms follow the SMILES beside them. Cha = N[C@@H](CC1CCCCC1)C(=O)O

Legend:
gastric HCl secretion = assay: in vivo inhibition of gastric acid secretion in dogs with chronic fistula and Heidenhain pouch; conditions: for effect equivalent to that dose of somatostatin: extrapolated against the dose-response curve of somatostatin, test compound 3 μg/kg-hr.; for activity relative to that of somatostatin: gastric acid secretion in dogs, relative potency expressed as percent activity
Description: D-Phe^11 -somatostatin and L-Cha^11 -somatostatin also were tested in dogs for their in vivo inhibition of gastric acid secretion. In six dogs with chronic fistula and Heidenhain pouch, gastric HCl secretion was induced by infusion of the C-terminal tetrapeptide of gastrin at 0.5 μg/kg-hr. One dog served as control, receiving only the tetrapeptide. Another dog received the tetrapeptide and somatostatin while the test compound was administered to the remaining dogs in place of somatostatin. After one hour of steady state secretion of HCl, somatostatin or the test compound was infused at 3 μg/kg-hr. for one hour. Collection of gastric acid samples was continued for an additional 1.5 hours at 15 minute intervals. The samples were titrated to pH 7 with an automatic titrator. The maximal inhibitory effect of the test compounds was extrapolated against the dose-response curve of somatostatin, and the relative potency of the analogs to that of somatostatin is expressed as percent activity. […] This effect is equivalent to that of 0.086 μg/kg-hr. of somatostatin. Its activity relative to that of somatostatin thus is 2.87%. […] This effect is equivalent to that of 0.0825 μg/kg-hr. of somatostatin. Its activity relative to that of somatostatin therefore is 2.7%.

[1] = system: release of growth hormone; assay: release of growth hormone in pentobarbital-stimulated rats; format: in vivo, Spraque-Dawley rats; conditions: 50 μg./rat subcutaneously, sodium pentobarbital stimulated, somatostatin comparator run in each set
Description: D-Phe^11 -somatostatin, L-Cha^11 -somatostatin, and L-Leu^11 -somatostatin also were tested for their activity with respect to the release of growth hormone. The procedure which was employed is carried out using mature male Spraque-Dawley rats (Laboratory Supply Company, Indianapolis, Indiana). The test is a modification of the method of P. Brazeau, W. Vale, and R. Guilleman, Endocrinology, 94 184 (1974). In each assay, a set comprising three groups of eight rats each was employed. First, sodium pentobarbital was administered to all of the rats of the particular set to stimulate growth hormone secretion. In each set, one group served as control group and received only saline. A second group received somatostatin at 50 μg./rat, subcutaneously. The third group received test compound at 50 μg./rat, subcutaneously. The degree of inhibition of serum growth hormone concentration then was determined with respect to the control group, and the relative activities of test compound and somatostatin itself were compared.

glucagon secretion [2] = assay: in vivo inhibition of glucagon secretion upon stimulation with L-alanine; design: species or system mongrel dogs; conditions: dogs, intravenous infusion; for effect on the increase in serum glucagon concentration produced by infusion of L-alanine: D-Phe11 0.211, L-Cha11 0.235, L-Leu11 0.195 μg/kg/min., L-alanine 1 mmol/kg; for effect on basal serum glucagon concentration: L-Cha11 0.235, L-Leu11 0.195 μg/kg/min.
Description: (§1) The tetradecapeptides were tested for their in vivo activity in inhibiting glucagon and insulin secretion upon stimulation with L-alanine. Normal mongrel dogs of either sex were fasted overnight. Control blood samples were obtained, and then an intravenous infusion of saline, somatostatin, or test compound was started. After 30 minutes, L-alanine additionally was administered intravenously for a period of 15 minutes. The infusion of saline, somatostatin, or test compound was continued for 15 minutes after completion of the alanine infusion. The total dose of somatostatin or test compound which was infused is 200-500 μg/dog (about 0.20-0.30 μg/kg./minute), and the total dose of L-alanine infused was 1 mmol/kg. The infusion of L-alanine produced an abrupt increase in the serum concentration of glucagon and insulin. This returned to control concentration when the alanine infusion was discontinued.

insulin secretion = assay: in vivo inhibition of insulin secretion upon stimulation with L-alanine; design: species or system mongrel dogs; conditions: for effect on the increase in serum insulin concentration produced by infusion of L-alanine / effect on basal serum insulin concentration: dogs, intravenous infusion; for effect on the increase in serum insulin concentration produced by infusion of L-alanine: D-Phe11 0.211, L-Cha11 0.235, L-Leu11 0.195 μg/kg/min., L-alanine 1 mmol/kg; for effect on basal serum insulin concentration: L-Cha11 0.235, L-Leu11 0.195 μg/kg/min., somatostatin about 0.20-0.30 μg/kg./minute
Description: as §1

glucagon secretion [3] = assay: in vivo inhibition of glucagon secretion upon stimulation with insulin; design: species or system mongrel dogs; conditions: dogs, intravenous infusion for two hours; D-Phe11 0.128, L-Cha11 0.130, L-Leu11 0.129 μg/kg/min.; insulin 0.3 units/kg.
Description: The tetradecapeptides also were evaluated for in vivo activity in inhibiting glucagon secretion upon stimulation with insulin. Normal mongrel dogs of either sex were fasted overnight. After control blood samples had been obtained, an intravenous infusion of saline, somatostatin, or the test compound was commenced. After 15 minutes, insulin, 0.3 units/kg., was injected intravenously. The infusion of saline, somatostatin, or the test compound was continued for two hours, and blood samples were obtained at various intervals throughout the test. The total dose of the somatostatin or test compound ranged from 120-260 μg./dog (0.07-0.13 μg/kg/min.). Administration of insulin produced a reduction in the blood glucose concentration and an increase in serum glucagon concentration.

C[C@H](N)C(=O)NCC(=O)N[C@H]1CSSC[C@@H](C(=O)O)NC(=O)[C@H](CO)NC(=O)[C@H]([C@@H](C)O)NC(=O)[C@H](CC2CCCCC2)NC(=O)[C@H]([C@@H](C)O)NC(=O)[C@H](CCCCN)NC(=O)[C@H](Cc2c[nH]c3ccccc23)NC(=O)[C@H](Cc2ccccc2)NC(=O)[C@H](Cc2ccccc2)NC(=O)[C@H](CC(N)=O)NC(=O)[C@H](CCCCN)NC1=O [L-Cha^11 -somatostatin] (H-AGCKNFFWKT[Cha]TSC-OH; disulfide 3-14)
effect equivalent to that dose of somatostatin (gastric HCl secretion): 0.0825 μg/kg-hr. | activity relative to that of somatostatin (gastric HCl secretion): 2.7% | inhibition of the increase in serum growth hormone concentration over control [1]: 33% | effect on the increase in serum glucagon concentration produced by infusion of L-alanine (glucagon secretion [2]): did not inhibit the increase in serum concentration of either hormone | effect on basal serum glucagon concentration (glucagon secretion [2]): caused a decrease in the basal serum concentration of both insulin and glucagon | effect on the increase in serum insulin concentration produced by infusion of L-alanine (insulin secretion): did not inhibit the increase in serum concentration of either hormone | effect on basal serum insulin concentration (insulin secretion): caused a decrease in the basal serum concentration of both insulin and glucagon | effect on the increase in serum glucagon concentration produced by insulin administration (glucagon secretion [3]): none of these compounds inhibited the increase in serum glucagon concentration

C[C@H](N)C(=O)NCC(=O)N[C@H]1CSSC[C@@H](C(=O)O)NC(=O)[C@H](CO)NC(=O)[C@H]([C@@H](C)O)NC(=O)[C@@H](Cc2ccccc2)NC(=O)[C@H]([C@@H](C)O)NC(=O)[C@H](CCCCN)NC(=O)[C@H](Cc2c[nH]c3ccccc23)NC(=O)[C@H](Cc2ccccc2)NC(=O)[C@H](Cc2ccccc2)NC(=O)[C@H](CC(N)=O)NC(=O)[C@H](CCCCN)NC1=O [D-Phe^11 -somatostatin]
effect equivalent to that dose of somatostatin (gastric HCl secretion): 0.086 μg/kg-hr. | activity relative to that of somatostatin (gastric HCl secretion): 2.87% | inhibition of the increase in serum growth hormone concentration over control [1]: 70% | effect on the increase in serum glucagon concentration produced by infusion of L-alanine (glucagon secretion [2]): did not affect the increase in serum glucagon concentration | effect on the increase in serum insulin concentration produced by infusion of L-alanine (insulin secretion): did not affect the increase in serum glucagon concentration and serum insulin concentration | effect on the increase in serum glucagon concentration produced by insulin administration (glucagon secretion [3]): none of these compounds inhibited the increase in serum glucagon concentration

CC(C)C[C@@H]1NC(=O)[C@H]([C@@H](C)O)NC(=O)[C@H](CCCCN)NC(=O)[C@H](Cc2c[nH]c3ccccc23)NC(=O)[C@H](Cc2ccccc2)NC(=O)[C@H](Cc2ccccc2)NC(=O)[C@H](CC(N)=O)NC(=O)[C@H](CCCCN)NC(=O)[C@@H](NC(=O)CNC(=O)[C@H](C)N)CSSC[C@@H](C(=O)O)NC(=O)[C@H](CO)NC(=O)[C@H]([C@@H](C)O)NC1=O [L-Leu^11 -somatostatin] (H-AGCKNFFWKTLTSC-OH; disulfide 3-14)
inhibition of the increase in serum growth hormone concentration over control [1]: 22% | effect on the increase in serum glucagon concentration produced by infusion of L-alanine (glucagon secretion [2]): had no effect on the increase in glucagon concentration produced by L-alanine | effect on basal serum glucagon concentration (glucagon secretion [2]): had no affect on the basal serum concentration of either insulin or glucagon | effect on the increase in serum insulin concentration produced by infusion of L-alanine (insulin secretion): caused only a partial inhibition of the increase in insulin secretion | effect on basal serum insulin concentration (insulin secretion): had no affect on the basal serum concentration of either insulin or glucagon | inhibitory effect upon the pancreatic secretion of insulin (insulin secretion; general statement): exhibits an inhibitory effect upon the pancreatic secretion of insulin | effect on the increase in serum glucagon concentration produced by insulin administration (glucagon secretion [3]): none of these compounds inhibited the increase in serum glucagon concentration
